According to patent US11173151B2, “Substituted triazole derivatives and uses thereof” (BAYER AKTIENGESELLSCHAFT, priority 2017, dated 2021):
Structures can show the parent of a compound that is named as a salt.

How the values were obtained:
human V2 receptor = target: T1, human V2 receptor (Homo sapiens, UniProt P30518); assay: Cellular in vitro assay for determining vasopressin receptor activity, V2 receptor cell line (CHO, CRE-luciferase); format: cell-based; settings: CHO cell line transfected with human V2 receptor; [Arg8]-vasopressin at EC50 concentration; read-out: IC50 hV2
T1 construct: expressed in transfected cells; host or cells: CHO K1 (ATCC) expressing firefly luciferase under a CRE-responsive promoter

human V1a receptor = target: T2, human V1a receptor (Homo sapiens, UniProt P37288); assay: Cellular in vitro assay for determining vasopressin receptor activity, V1a receptor cell line (CHO, aequorin luminescence); format: cell-based; settings: for IC50: CHO cell line transfected with human V1a receptor, [Arg]-vasopressin at EC50 concentration, read-out: IC50 hV1a; for ratio IC50 hV2/hV1a: selectivity ratio IC50 hV2 / IC50 hV1a
T2 construct: expressed in transfected cells; host or cells: CHO K1 (ATCC), also stably transfected with a modified aequorin
Procedure, shortened: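 Luminescence from reconstituted aequorin, reporting intracellular calcium release, was measured immediately after adding [Arg]-vasopressin at EC50 concentration to CHO K1 cells pretreated 10 minutes with graded compound concentrations. Inhibition gave IC50 values.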

T2 sequence (P37288 whole entry): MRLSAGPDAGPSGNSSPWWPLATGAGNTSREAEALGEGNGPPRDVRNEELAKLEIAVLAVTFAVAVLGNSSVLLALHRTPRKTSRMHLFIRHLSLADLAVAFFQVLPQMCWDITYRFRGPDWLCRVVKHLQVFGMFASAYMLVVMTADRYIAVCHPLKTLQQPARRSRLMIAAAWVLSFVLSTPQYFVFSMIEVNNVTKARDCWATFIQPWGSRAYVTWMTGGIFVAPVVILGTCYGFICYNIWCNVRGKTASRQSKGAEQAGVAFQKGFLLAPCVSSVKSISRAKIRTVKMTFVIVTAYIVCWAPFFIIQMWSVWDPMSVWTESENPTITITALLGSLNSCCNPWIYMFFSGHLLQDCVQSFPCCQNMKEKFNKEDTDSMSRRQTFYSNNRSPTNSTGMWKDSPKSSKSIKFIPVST
T1 sequence (P30518 whole entry): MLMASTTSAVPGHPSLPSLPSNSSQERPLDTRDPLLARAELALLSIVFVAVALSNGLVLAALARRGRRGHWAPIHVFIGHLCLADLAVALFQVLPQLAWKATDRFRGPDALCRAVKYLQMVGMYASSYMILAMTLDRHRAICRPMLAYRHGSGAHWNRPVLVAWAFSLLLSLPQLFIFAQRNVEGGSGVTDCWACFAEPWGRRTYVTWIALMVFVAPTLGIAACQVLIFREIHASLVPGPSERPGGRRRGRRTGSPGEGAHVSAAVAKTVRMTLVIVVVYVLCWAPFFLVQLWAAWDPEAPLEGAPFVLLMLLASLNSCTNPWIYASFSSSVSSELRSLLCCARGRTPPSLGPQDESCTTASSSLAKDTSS

| SMILES | IC50 (human V2 receptor) | IC50 (human V1a receptor) | ratio IC50 hV2/hV1a (human V1a receptor) |
| --- | --- | --- | --- |
| O=C(NC1(C(F)(F)F)CC1)c1ncccc1-n1cnc(Cn2nc(-c3ccc(Cl)cc3)n(C[C@H](O)C(F)(F)F)c2=O)n1 [Example 447, 3-[3-({3-(4-Chlorophenyl)-5-oxo-4-[(2S)-3,3,3-trifluoro-2-hydroxypropyl]-4,5-dihydro-1H-1,2,4-triazol-1-yl}methyl)-1H-1,2,4-triazol-1-yl]-N-[1-(trifluoromethyl)cyclopropyl]pyridine-2-carboxamide] | 815 nM | 29.5 nM | 27.6 |
| O=C(c1ncccc1-n1cnc(Cn2nc(-c3ccc(Cl)cc3)n(C[C@H](O)C(F)(F)F)c2=O)n1)N1CCC[C@H]1C(F)(F)F [Example 450, 5-(4-Chlorophenyl)-4-[(2S)-3,3,3-trifluoro-2-hydroxypropyl]-2-{[1-(2-{[(2S)-2-(trifluoromethyl)pyrrolidin-1-yl]carbonyl}pyridin-3-yl)-1H-1,2,4-triazol-3-yl]methyl}-2,4-dihydro-3H-1,2,4-triazol-3-one] | 1250 nM | 39.5 nM | 31.6 |
| O=C(c1ncccc1-n1cnc(Cn2nc(-c3ccc(Cl)cc3)n(C[C@H](O)C(F)(F)F)c2=O)n1)N1CCC[C@@H]1C(F)(F)F [Example 451, 5-(4-Chlorophenyl)-4-[(2S)-3,3,3-trifluoro-2-hydroxypropyl]-2-{[1-(2-{[(2R)-2-(trifluoromethyl)pyrrolidin-1-yl]carbonyl}pyridin-3-yl)-1H-1,2,4-triazol-3-yl]methyl}-2,4-dihydro-3H-1,2,4-triazol-3-one] | 1020 nM | 110 nM | 9.3 |
| O=C(c1ncccc1-n1cnc(Cn2nc(-c3ccc(Cl)cc3)n(C[C@H](O)C(F)(F)F)c2=O)n1)N1CCS(=O)(=O)CC1 [Example 452, 5-(4-Chlorophenyl)-2-[(1-{2-[(1,1-dioxidothiomorpholin-4-yl)carbonyl]pyridin-3-yl}-1H-1,2,4-triazol-3-yl)methyl]-4-[(2S)-3,3,3-trifluoro-2-hydroxypropyl]-2,4-dihydro-3H-1,2,4-triazol-3-one] | 5900 nM | 265 nM | 22.3 |
| CC1(C)CNCCN1C(=O)c1ncccc1-n1cnc(Cn2nc(-c3ccc(Cl)cc3)n(C[C@H](O)C(F)(F)F)c2=O)n1 [Example 453, 5-(4-Chlorophenyl)-2-[(1-{2-[(2,2-dimethylpiperazin-1-yl)carbonyl]pyridin-3-yl}-1H-1,2,4-triazol-3-yl)methyl]-4-[(2S)-3,3,3-trifluoro-2-hydroxypropyl]-2,4-dihydro-3H-1,2,4-triazol-3-one-Hydrochloric Acid Salt] | 32000 nM | 175 nM | 182.9 |
| CN(CC1CC1)C(=O)c1ncccc1-n1cnc(Cn2nc(-c3ccc(Cl)cc3)n(C[C@H](O)C(F)(F)F)c2=O)n1 [Example 454, 3-[3-({3-(4-Chlorophenyl)-5-oxo-4-[(2S)-3,3,3-trifluoro-2-hydroxypropyl]-4,5-dihydro-1H-1,2,4-triazol-1-yl}methyl)-1H-1,2,4-triazol-1-yl]-N-(cyclopropylmethyl)-N-methylpyridine-2-carboxamide] | 4050 nM | 12 nM | 337.5 |
| CC1(NC(=O)c2ncccc2-n2cnc(Cn3nc(-c4ccc(Cl)cc4)n(C[C@H](O)C(F)(F)F)c3=O)n2)CC1 [Example 455, 3-[3-({3-(4-Chlorophenyl)-5-oxo-4-[(2S)-3,3,3-trifluoro-2-hydroxypropyl]-4,5-dihydro-1H-1,2,4-triazol-1-yl}methyl)-1H-1,2,4-triazol-1-yl]-N-(1-methylcyclopropyl)pyridine-2-carboxamide] | 1200 nM | 4.4 nM | 272.7 |
| O=C(NCC(F)(F)F)c1ncccc1-n1cnc(Cn2nc(-c3ccc(Cl)cc3)n(C[C@@H](O)C(F)(F)F)c2=O)n1 [Example 457, 3-[3-({3-(4-Chlorophenyl)-5-oxo-4-[(2R)-3,3,3-trifluoro-2-hydroxypropyl]-4,5-dihydro-1H-1,2,4-triazol-1-yl}methyl)-1H-1,2,4-triazol-1-yl]-N-(2,2,2-trifluoroethyl)pyridine-2-carboxamide] | 5300 nM | 210 nM | 25.2 |
| O=C(NC1CC1)c1ncccc1-n1cnc(Cn2nc(-c3ccc(Cl)cc3)n(C[C@@H](O)C(F)(F)F)c2=O)n1 [Example 458, 3-[3-({3-(4-Chlorophenyl)-5-oxo-4-[(2R)-3,3,3-trifluoro-2-hydroxypropyl]-4,5-dihydro-1H-1,2,4-triazol-1-yl}methyl)-1H-1,2,4-triazol-1-yl]-N-cyclopropylpyridine-2-carboxamide] | 6050 nM | 100 nM | 60.5 |
| O=C(NCC1CC1)c1ncccc1-n1cnc(Cn2nc(-c3ccc(Cl)cc3)n(C[C@@H](O)C(F)(F)F)c2=O)n1 [Example 459, 3-[3-({3-(4-Chlorophenyl)-5-oxo-4-[(2R)-3,3,3-trifluoro-2-hydroxypropyl]-4,5-dihydro-1H-1,2,4-triazol-1-yl}methyl)-1H-1,2,4-triazol-1-yl]-N-(cyclopropylmethyl)pyridine-2-carboxamide] | 4400 nM | 210 nM | 21.0 |
| O=C(NC1CC1(F)F)c1ncccc1-n1cnc(Cn2nc(-c3ccc(Cl)cc3)n(C[C@@H](O)C(F)(F)F)c2=O)n1 (stereo partly drawn) [Example 460, 3-[3-({3-(4-Chlorophenyl)-5-oxo-4-[(2R)-3,3,3-trifluoro-2-hydroxypropyl]-4,5-dihydro-1H-1,2,4-triazol-1-yl}methyl)-1H-1,2,4-triazol-1-yl]-N-[2,2-difluorocyclopropyl]pyridine-2-carboxamide] | 3950 nM | 130 nM | 30.4 |
| NC(=O)[C@@H]1CC(F)(F)CN1C(=O)c1ncccc1-n1cnc(Cn2nc(-c3ccc(Cl)cc3)n(C[C@@H](O)C(F)(F)F)c2=O)n1 [Example 461, 1-({3-[3-({3-(4-Chlorophenyl)-5-oxo-4-[(2R)-3,3,3-trifluoro-2-hydroxypropyl]-4,5-dihydro-1H-1,2,4-triazol-1-yl}methyl)-1H-1,2,4-triazol-1-yl]pyridin-2-yl}carbonyl)-4,4-difluoro-L-prolinamide] | 22000 nM | 1100 nM | 20.0 |
| O=C(NC1CC1F)c1ncccc1-n1cnc(Cn2nc(-c3ccc(Cl)cc3)n(C[C@@H](O)C(F)(F)F)c2=O)n1 (stereo partly drawn) [Example 462, 3-[3-({3-(4-Chlorophenyl)-5-oxo-4-[(2R)-3,3,3-trifluoro-2-hydroxypropyl]-4,5-dihydro-1H-1,2,4-triazol-1-yl}methyl)-1H-1,2,4-triazol-1-yl]-N-[2-fluorocyclopropyl]pyridine-2-carboxamide] | 5950 nM | 97 nM | 61.3 |
| O=C(c1ncccc1-n1cnc(Cn2nc(-c3ccc(Cl)cc3)n(C[C@@H](O)C(F)(F)F)c2=O)n1)N1CCC(F)(F)C1 [Example 463, 5-(4-Chlorophenyl)-2-[(1-{2-[(3,3-difluoropyrrolidin-1-yl)carbonyl]pyridin-3-yl}-1H-1,2,4-triazol-3-yl)methyl]-4-[(2R)-3,3,3-trifluoro-2-hydroxypropyl]-2,4-dihydro-3H-1,2,4-triazol-3-one] | 32000 nM | 235 nM | 136.2 |
| CC1(C)CN(C(=O)c2ncccc2-n2cnc(Cn3nc(-c4ccc(Cl)cc4)n(C[C@@H](O)C(F)(F)F)c3=O)n2)CCO1 [Example 464, 5-(4-Chlorophenyl)-2-[(1-{2-[(2,2-dimethylmorpholin-4-yl)carbonyl]pyridin-3-yl}-1H-1,2,4-triazol-3-yl)methyl]-4-[(2R)-3,3,3-trifluoro-2-hydroxypropyl]-2,4-dihydro-3H-1,2,4-triazol-3-one] | 32000 nM | 60 nM | 533.3 |
| O=C(NC1CC(F)(F)C1)c1ncccc1-n1cnc(Cn2nc(-c3ccc(Cl)cc3)n(C[C@@H](O)C(F)(F)F)c2=O)n1 [Example 465, 3-[3-({3-(4-Chlorophenyl)-5-oxo-4-[(2R)-3,3,3-trifluoro-2-hydroxypropyl]-4,5-dihydro-1H-1,2,4-triazol-1-yl}methyl)-1H-1,2,4-triazol-1-yl]-N-(3,3-difluorocyclobutyl)pyridine-2-carboxamide] | 3600 nM | 170 nM | 21.2 |
| CC1CN(C(=O)c2ncccc2-n2cnc(Cn3nc(-c4ccc(Cl)cc4)n(C[C@@H](O)C(F)(F)F)c3=O)n2)CCO1 (stereo partly drawn) [Example 466, 5-(4-Chlorophenyl)-2-{[1-(2-{[2-methylmorpholin-4-yl]carbonyl}pyridin-3-yl)-1H-1,2,4-triazol-3-yl]methyl}-4-[(2R)-3,3,3-trifluoro-2-hydroxypropyl]-2,4-dihydro-3H-1,2,4-triazol-3-one] | 66000 nM | 710 nM | 93.0 |
| O=C(c1ncccc1-n1cnc(Cn2nc(-c3ccc(Cl)cc3)n(C[C@@H](O)C(F)(F)F)c2=O)n1)N1CCC(O)(C(F)(F)F)C1 (stereo partly drawn) [Example 468, 5-(4-Chlorophenyl)-2-{[1-(2-{[3-hydroxy-3-(trifluoromethyl)pyrrolidin-1-yl]carbonyl}pyridin-3-yl)-1H-1,2,4-triazol-3-yl]methyl}-4-[(2R)-3,3,3-trifluoro-2-hydroxypropyl]-2,4-dihydro-3H-1,2,4-triazol-3-one] | 32000 nM | 420 nM | 76.2 |
| O=C(c1ncccc1-n1cnc(Cn2nc(-c3ccc(Cl)cc3)n(C[C@@H](O)C(F)(F)F)c2=O)n1)N1CCOC(C(F)(F)F)C1 (stereo partly drawn) [Example 470, 5-(4-Chlorophenyl)-4-[(2R)-3,3,3-trifluoro-2-hydroxypropyl]-2-{[1-(2-{[2-(trifluoromethyl)morpholin-4-yl]carbonyl}pyridin-3-yl)-1H-1,2,4-triazol-3-yl]methyl}-2,4-dihydro-3H-1,2,4-triazol-3-one] | 32000 nM | 750 nM | 42.7 |
